Measured values as given in ChEMBL document CHEMBL1800038, “Kabiramides J and K, trisoxazole macrolides from the sponge Pachastrissa nux” (J Nat Prod, 2011).
Calls of active or inactive are those of the source. The rule behind the calls is not given here.

Assays:
Plasmodium falciparum [1] = test: Antimalarial activity against multidrug-resistance Plasmodium falciparum K1 assessed as growth inhibition at […] by microdilution radioisotope technique; format: functional, organism-based
MCF7 = test: Cytotoxicity against human MCF7 cells by SRB assay; format: functional, cell-based
[2] = Cytotoxicity against human Fibroblasts by SRB assay; format: cell-based; settings: Fibroblast
Plasmodium falciparum [3] = test: Antimalarial activity against multidrug-resistance Plasmodium falciparum K1 assessed as growth inhibition by microdilution radioisotope technique; format: functional, organism-based

| Structure (SMILES) | inhibition (Plasmodium falciparum [1]) | IC50 (MCF7) [µM] | IC50 [2] [µM] | IC50 (Plasmodium falciparum [3]) [µM] |
| --- | --- | --- | --- | --- |
| CO[C@H]1C/C=C/c2nc(co2)-c2nc(co2)-c2nc(co2)[C@H](OC)[C@@H](C)[C@@H](O)C[C@@H](C)C[C@H](OC(N)=O)CC(=O)O[C@@H](C[C@H](OC)[C@@H](C)CCC(=O)/C(C)=C/[C@H](C)/C=C/N(C)C=O)[C@@H]1C [KABIRAMIDE G] | inactive | 0.02 | 2.37 | – |
| CO[C@H]1C/C=C/c2nc(co2)-c2nc(co2)-c2nc(co2)[C@H](OC)[C@@H](C)[C@@H](O)C[C@@H](C)C[C@H](O)CC(=O)O[C@@H](C[C@H](OC)[C@@H](C)CCC(=O)/C(C)=C/[C@H](C)/C=C/N(C)C=O)[C@@H]1C [KABIRAMIDE K] | – | 0.07 | – | 0.39 |
| CO[C@H]([C@H](C)/C=C/N(C)C=O)[C@@H](C)C(=O)CC[C@H](C)[C@H](C[C@@H]1OC(=O)C[C@@H](O)C[C@H](C)C[C@H](O)[C@H](C)[C@@H](OC)c2coc(n2)-c2coc(n2)-c2coc(n2)/C=C/C[C@H](OC)[C@H]1C)OC [KABIRAMIDE D] | – | 0.02 | 0.5 | 1.87 |
| CO[C@H]([C@H](C)/C=C/N(C)C=O)[C@@H](C)C(=O)CC[C@H](C)[C@H](C[C@@H]1OC(=O)C[C@@H](OC(N)=O)C[C@H](C)C[C@H](O)[C@H](C)[C@@H](OC)c2coc(n2)-c2coc(n2)-c2coc(n2)/C=C/C[C@H](O)[C@H]1C)OC [KABIRAMIDE B] | – | 0.45 | 0.95 | 1.67 |
| CO[C@H]([C@H](C)/C=C/N(C)C=O)[C@@H](C)C(=O)CC[C@H](C)[C@H](C[C@@H]1OC(=O)C[C@@H](OC(N)=O)C[C@H](C)C[C@H](O)[C@H](C)[C@@H](OC)c2coc(n2)-c2coc(n2)-c2coc(n2)/C=C/C[C@H](OC)[C@H]1C)OC [KABIRAMIDE C] | – | 0.47 | 7.59 | 4.79 |
| C[C@H]1[C@@H](O)O[C@@H]2O[C@@]3(C)CC[C@H]4[C@H](C)CC[C@@H]1[C@@]24OO3 [ARTENIMOL] | – | – | – | 0.0038 |
| CO[C@@H](C[C@@H]1OC(=O)C[C@@H](OC(N)=O)C[C@H](C)C[C@H](O)[C@H](C)[C@@H](OC)c2coc(n2)-c2coc(n2)-c2coc(n2)/C=C/C[C@H](O)[C@H]1C)[C@@H](C)CCC(=O)/C(C)=C/[C@H](C)/C=C/N(C)C=O [KABIRAMIDE J] | – | 0.02 | – | 0.31 |
| CC[C@@]1(O)C(=O)OCc2c1cc1n(c2=O)Cc2cc3ccccc3nc2-1 [CAMPTOTHECIN] | – | 0.0016 | 0.459 | – |
